A word on the pIC50: it is −log10 of the IC50, conventionally taken in molar units.

For one assay, the target named is T1, Cathepsin K (Homo sapiens, UniProt P43235).
T1 sequence (P43235 whole entry): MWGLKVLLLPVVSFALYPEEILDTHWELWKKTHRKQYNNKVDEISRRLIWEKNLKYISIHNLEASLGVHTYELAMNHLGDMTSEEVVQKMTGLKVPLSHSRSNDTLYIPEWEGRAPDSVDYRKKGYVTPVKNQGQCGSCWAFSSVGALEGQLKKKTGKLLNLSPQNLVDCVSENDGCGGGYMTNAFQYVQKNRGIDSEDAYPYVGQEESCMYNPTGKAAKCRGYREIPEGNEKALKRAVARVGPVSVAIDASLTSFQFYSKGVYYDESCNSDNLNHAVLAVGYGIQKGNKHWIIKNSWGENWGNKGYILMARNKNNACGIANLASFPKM
The assay can be described thus: Inhibitory concentration against recombinant human cathepsin K determined in a fluorescence assay using 10 uM Cbz-Phe-Arg-AMC as substrate.

The target of another assay is Procathepsin L (Homo sapiens, UniProt P07711). Kind of assay: Inhibitory concentration against recombinant human cathepsin L was determined in a fluorescence assay using 5 uM Cbz-Phe-Arg-AMC as substrate.
Another assay has as its target Cathepsin B (Homo sapiens, UniProt P07858). Kind of assay: Inhibitory concentration against recombinant human cathepsin B was determined in a fluorescence assay using 10 uM Cbz-Phe-Arg-AMC as substrate.

Molecules are shown by their SMILES. pIC50: −log10 of the molar value.

Chain of Procathepsin L (P07711 whole entry): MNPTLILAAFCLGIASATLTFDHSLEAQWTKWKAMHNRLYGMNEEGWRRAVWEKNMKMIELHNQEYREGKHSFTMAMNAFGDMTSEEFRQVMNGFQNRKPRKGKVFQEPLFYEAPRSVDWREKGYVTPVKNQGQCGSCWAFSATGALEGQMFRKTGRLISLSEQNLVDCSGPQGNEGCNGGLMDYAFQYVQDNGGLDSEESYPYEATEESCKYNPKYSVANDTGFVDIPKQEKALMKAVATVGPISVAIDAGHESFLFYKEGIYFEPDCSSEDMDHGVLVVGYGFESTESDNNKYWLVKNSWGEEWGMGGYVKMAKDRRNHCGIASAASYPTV

On to `CCCC[C@@H](C=O)NC(=O)OC(Cc1ccccc1)Cc1ccccc1`, for which, on Cathepsin K, the pIC50 is 7.15.

Consider `CCCC[C@@H](C=O)NC(=O)O[C@@H](C)Cc1ccccc1`, for which the pIC50 is 6.13 at Procathepsin L, 6.34 on Cathepsin B and 8.74 on Cathepsin K.

For `CCCC[C@@H](C=O)NC(=O)O[C@@H](CC)Cc1ccccc1`, the pIC50 on Procathepsin L was 7.82; on Cathepsin B it was 7.14; on Cathepsin K, 9.89.

For the molecule `CCCC[C@@H](C=O)NC(=O)O[C@@H](CCC)Cc1ccccc1`, on Cathepsin K, the pIC50 is 8.82.

As to `CCCC[C@@H](C=O)NC(=O)O[C@H](Cc1ccccc1)CC(C)C`, on Cathepsin K, the pIC50 is 8.19.

As to `CCCC[C@@H](C=O)NC(=O)OCCc1ccccc1`, the pIC50 at Cathepsin K is 6.57.

For the molecule `CCCC[C@@H](C=O)NC(=O)OC(CC(C)C)CC(C)C`, at Cathepsin K, the pIC50 was 8.96.

For `CCCC[C@@H](C=O)NC(=O)O[C@@H](C)CC1CCCCC1`, the values for the pIC50 at Procathepsin L, on Cathepsin B and on Cathepsin K were 6.57, 6.40 and 8.57, respectively.

As for `CCCC[C@@H](C=O)NC(=O)OC1(Cc2ccccc2)CCC1`, the results for the pIC50 on Procathepsin L, on Cathepsin B and at Cathepsin K were 5.92, 5.47 and 8.62, respectively.

Take `CCCC[C@@H](C=O)NC(=O)OC(CC)(CC)Cc1ccccc1`: the values for the pIC50 on Procathepsin L, on Cathepsin B and at Cathepsin K were 6.96, 5.66 and 8.68, respectively.

Take `CCCC[C@@H](C=O)NC(=O)OCc1ccccc1`: on Cathepsin K, the pIC50 is 6.27.

`CCCC[C@@H](C=O)NC(=O)OC(C)(C)Cc1ccccc1`: the pIC50 on Cathepsin K is 7.92.

For the molecule `CCCC[C@@H](C=O)NC(=O)OC1(Cc2ccccc2)CCCCC1`, the pIC50 on Procathepsin L was 5.07; on Cathepsin B, 4.92; on Cathepsin K, 8.70.

Consider `CCCC[C@@H](C=O)NC(=O)OC(C)(C)Cc1ccc(Cl)cc1`, for which the pIC50 on Cathepsin K was 8.34.

Regarding `CCCC[C@@H](C=O)NC(=O)OC(C)(C)Cc1cccc(OC)c1`, the pIC50 at Cathepsin K was 8.27.

Turning to `CCCC[C@@H](C=O)NC(=O)OC(C)(C(C)C)C(C)C`, the pIC50 at Cathepsin K was 8.33.

Regarding `CCCC[C@@H](C=O)NC(=O)OC1(Cc2ccccc2)CCCC1`, the figures for the pIC50 at Procathepsin L and at Cathepsin B were 5.70 and 6.09, respectively.

On to `CCCC[C@@H](C=O)NC(=O)OC(C(C)C)C(C)C`, for which the pIC50 on Cathepsin K is 9.25.

For `CCCC[C@@H](C=O)NC(=O)OC(C)(C)Cc1ccc(OC)cc1`, at Cathepsin K, the pIC50 is 8.54.

As to `CCCC[C@@H](C=O)NC(=O)O[C@H](C)Cc1ccccc1`, the pIC50 at Cathepsin K was 7.00.

`CCCC[C@@H](C=O)NC(=O)OC(C)(C)Cc1ccccc1Cl`: the pIC50 at Cathepsin K is 8.51.

In the case of `CCCC[C@@H](C=O)NC(=O)OC(CC)CC`, at Cathepsin K, the pIC50 was 8.40.

As for `CCCC[C@@H](C=O)NC(=O)OC(CCC)CCC`, the pIC50 at Cathepsin K is 9.06.

As to `CCCC[C@@H](C=O)NC(=O)OC(C)(C)Cc1cccc(-c2ccsc2)c1`, the pIC50 at Cathepsin K was 8.12.

On to `CCCC[C@@H](C=O)NC(=O)OCCCc1ccccc1`, for which the pIC50 at Cathepsin K is 6.22.

The values are drawn from ChEMBL document CHEMBL1147461, “Exploration of the P2-P3 SAR of aldehyde cathepsin K inhibitors” (Bioorg Med Chem Lett, 2004).
